{
  "source": "patent US12178822B2",
  "about": "“Methods of treating hematological malignancies using 2-(2,6-dioxopiperidin-3-yl)-4-((2-fluoro-4-((3-morpholinoazetidin-1-yl)methyl)benzyl)amino)isoindoline-1,3-dion” (Celgene Corporation, priority 2019, dated 2024)",
  "assay_type_in_all_cases": "cell-based",
  "key": {"SVSL/VL51": {"test_system": "SVSL/VL51", "test": "Cell proliferation and viability / apoptosis flow cytometry assay, SVSL", "details": "SVSL (MZL, SMZL); 120 hours", "protocol": "(§1) The following are examples of cell-based assays that can be used to determine the anti-proliferative activity and apoptotic effect of compounds described herein using exemplary hematological cell lines (Table 1). The in vitro growth inhibitory activity of Compound 1 described herein was evaluated using a 384-well flow cytometry assay.\n(§2) The cell lines were plated under the conditions shown in Table 1 in 384-well flat bottom plates and incubated with increasing concentrations of compound ranging from 0.00015 to 10 μM or dimethyl sulfoxide (DMSO) control. The final concentration of DMSO was 0.1% (v/v). Following the addition of Compound 1 or DMSO and incubation for 120 hours, cell number and cell death were analyzed by flow cytometry (Attune®, Thermo Fisher) using Annexin V and the live-cell impermeant DNA dye, DRAQ7. […]\n(§3) Flow cytometry data analysis was then performed using the Flow Jo_v10 software to determine the number of viable cells (Annexin V and DRAQ7 double negative staining cells) and percentage of apoptotic cells (Annexin V positive cells) for each condition. […] The IC50 (50% inhibitory concentration) and Emax (maximum efficacy achieved) values were then calculated by performing nonlinear regression curve fitting using log(inhibitor) vs. normalized response—variable slope analysis on GraphPad Prism 7.03. […]"}, "Daudi": {"test_system": "Daudi", "test": "Cell proliferation and viability / apoptosis flow cytometry assay, Daudi", "details": "Daudi (BL); 120 hours", "protocol": "as §1, §2, §3"}, "BL-41": {"test_system": "BL-41", "test": "Cell proliferation and viability / apoptosis flow cytometry assay, BL-41", "details": "120 hours", "protocol": "as §1, §2, §3"}, "MDS-L": {"test_system": "MDS-L", "test": "Cell proliferation and viability / apoptosis flow cytometry assay, MDS-L", "details": "120 hours", "protocol": "as §1, §2, §3"}, "HNT-34": {"test_system": "HNT-34", "test": "Cell proliferation and viability / apoptosis flow cytometry assay, HNT-34", "details": "HNT-34 (AML); 120 hours", "protocol": "as §1, §2, §3"}, "NCI-H929": {"test_system": "NCI-H929", "test": "Cell proliferation and viability / apoptosis flow cytometry assay, NCI-H929", "details": "NCI-H929 (MM); 120 hours", "protocol": "as §1, §2, §3"}, "OPM-2": {"test_system": "OPM-2", "test": "Cell proliferation and viability / apoptosis flow cytometry assay, OPM-2", "details": "OPM-2 (MM); 120 hours", "protocol": "as §1, §2, §3"}, "HuT-102": {"test_system": "HuT-102", "test": "Cell proliferation and viability / apoptosis flow cytometry assay, HuT-102", "details": "HuT-102 (TCL); 120 hours", "protocol": "as §1, §2, §3"}, "Karpas-299": {"test_system": "Karpas-299", "test": "Cell proliferation and viability / apoptosis flow cytometry assay, Karpas-299", "details": "Karpas-299 (TCL); 120 hours", "protocol": "as §1, §2, §3"}, "JJN-3": {"test_system": "JJN-3", "test": "Cell proliferation and viability / apoptosis flow cytometry assay, JJN-3", "details": "JJN-3 (MM, PCL); 120 hours", "protocol": "as §1, §2, §3"}, "SK-MM-1": {"test_system": "SK-MM-1", "test": "Cell proliferation and viability / apoptosis flow cytometry assay, SK-MM-1", "details": "SK-MM-1 (MM, PCL); 120 hours", "protocol": "as §1, §2, §3"}, "L-363": {"test_system": "L-363", "test": "Cell proliferation and viability / apoptosis flow cytometry assay, L-363", "details": "L-363 (MM, PCL); 120 hours", "protocol": "as §1, §2, §3"}, "Karpas-231": {"test_system": "Karpas-231", "test": "Cell proliferation and viability / apoptosis flow cytometry assay, Karpas-231", "details": "Karpas-231 (ALL); 120 hours", "protocol": "as §1, §2, §3"}, "KOPN-8": {"test_system": "KOPN-8", "test": "Cell proliferation and viability / apoptosis flow cytometry assay, KOPN-8", "details": "KOPN-8 (ALL); 120 hours", "protocol": "as §1, §2, §3"}, "L-428": {"test_system": "L-428", "test": "Cell proliferation and viability / apoptosis flow cytometry assay, L-428", "details": "L-428 (HL); 120 hours", "protocol": "as §1, §2, §3"}, "L-591": {"test_system": "L-591", "test": "Cell proliferation and viability / apoptosis flow cytometry assay, L-591", "details": "L-591 (HL); 120 hours", "protocol": "as §1, §2, §3"}},
  "data": [
    {"smiles": "O=C1CC[C@H](N2C(=O)c3cccc(NCc4ccc(CN5CC(N6CCOCC6)C5)cc4F)c3C2=O)C(=O)N1", "note": "[Compound 1, (S)-2-(2,6-dioxopiperidin-3-yl)-4-((2-fluoro-4-((3-morpholinoazetidin-1-yl)methyl)benzyl)amino)isoindoline-1,3-dione]", "values": [
      {"measurement": "% Viable Cells Emax (percentage of tumor cells remaining)", "setting": "SVSL/VL51", "result": 34.07, "unit": "%"},
      {"measurement": "% Viable Cells Emax (percentage of tumor cells remaining)", "setting": "Daudi", "result": 0, "unit": "%"},
      {"measurement": "% Viable Cells Emax (percentage of tumor cells remaining)", "setting": "BL-41", "result": 96.65, "unit": "%"},
      {"measurement": "% Viable Cells Emax (percentage of tumor cells remaining)", "setting": "MDS-L", "result": 146.7, "unit": "%"},
      {"measurement": "% Viable Cells Emax (percentage of tumor cells remaining)", "setting": "HNT-34", "result": 20.47, "unit": "%"},
      {"measurement": "% Viable Cells Emax (percentage of tumor cells remaining)", "setting": "NCI-H929", "result": 6.1, "unit": "%"},
      {"measurement": "% Viable Cells Emax (percentage of tumor cells remaining)", "setting": "OPM-2", "result": 6.65, "unit": "%"},
      {"measurement": "% Viable Cells Emax (percentage of tumor cells remaining)", "setting": "HuT-102", "result": 36.34, "unit": "%"},
      {"measurement": "% Viable Cells Emax (percentage of tumor cells remaining)", "setting": "Karpas-299", "result": 8.43, "unit": "%"},
      {"measurement": "% Viable Cells Emax (percentage of tumor cells remaining)", "setting": "JJN-3", "result": 21.6, "unit": "%"},
      {"measurement": "% Viable Cells Emax (percentage of tumor cells remaining)", "setting": "SK-MM-1", "result": 3, "unit": "%"},
      {"measurement": "% Viable Cells Emax (percentage of tumor cells remaining)", "setting": "L-363", "result": 27.6, "unit": "%"},
      {"measurement": "% Viable Cells Emax (percentage of tumor cells remaining)", "setting": "Karpas-231", "result": 0, "unit": "%"},
      {"measurement": "% Viable Cells Emax (percentage of tumor cells remaining)", "setting": "KOPN-8", "result": 38.3, "unit": "%"},
      {"measurement": "% Viable Cells Emax (percentage of tumor cells remaining)", "setting": "L-428", "result": 47.3, "unit": "%"},
      {"measurement": "% Viable Cells Emax (percentage of tumor cells remaining)", "setting": "L-591", "result": 34.6, "unit": "%"}
    ]}
  ]
}
